Measurements from patent publication US6737383B1, “Herbicidal oxadiazolidines” (priority 1999, dated 2004).

How the values were obtained:
wheat = assay: Test B pre/postemergence wheat; type: in vivo, Triticum aestivum; details: for Wheat plant response rating (0 to 10 scale): 0 is no effect
Summary of the method: (§1)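 Herbicidal effect was estimated by eye on a ten-point control scale after plants spent twelve to sixteen days in a greenhouse following soil or foliar treatment. Foliar sprays targeted plants at one to four leaves; all doses were formulated in a non-phytotoxic solvent with surfactant.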

green foxtail = assay: Test E green foxtail; type: in vivo, Setaria viridis; details: Preemergence
Italian ryegrass = assay: Test E Italian ryegrass; type: in vivo, Lolium multiflorum; details: Preemergence
duck salad = assay: Test B flood test duck salad; type: in vivo, Heteranthera limosa
Summary of the method: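 Flood test on plants grown to the 2-leaf stage; treated plants kept in greenhouse twelve to sixteen days, then visually rated against controls on a 0 (no effect) to 10 (complete control) scale.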

winter barley = assay: Test E winter barley; type: in vivo, Hordeum vulgare; details: Preemergence
winter wheat [1] = assay: Test E winter wheat; type: in vivo, Triticum aestivum; details: Preemergence
wild oat = assay: Test E wild oat; type: in vivo, Avena fatua; details: Preemergence
winter wheat [2] = assay: Test E winter wheat; type: in vivo, Triticum aestivum; details: Postemergence
Summary of the method: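 Compound formulated with surfactant in a non-phytotoxic solvent (postemergence: young 1- to 4-leaf plants); held in greenhouse approx. 21–28 days; visual assessment against untreated plants.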

blackgrass = assay: Test E blackgrass; type: in vivo, Alopecurus myosuroides; details: Preemergence
giant foxtail = assay: Test B pre/postemergence giant foxtail; type: in vivo, Setaria faberii
Summary of the method: as §1

crabgrass = assay: Test B pre/postemergence crabgrass; type: in vivo, Digitaria sanguinalis
Summary of the method: as §1

[3] = Postemergence, Rate 125 g/ha, scale of 0 to 10 where 0 is no effect and 10 is complete control
[4] = Preemergence, Rate 62 g/ha, scale 0 to 10 (0 no effect, 10 complete control)
[5] = Preemergence, Rate 125 g/ha, 10 is complete control
[6] = Preemergence, Rate 250 g/ha, scale of 0 to 10 where 0 is no effect and 10 is complete control
[7] = Preemergence, Rate 500 g/ha, scale 0 to 10 (0 no effect, 10 complete control)
[8] = Rate 62 g/ha, Postemergence, scale of 0 to 10 where 0 is no effect and 10 is complete control
[9] = Rate 250 g/ha, Postemergence, scale 0 to 10, 0 is no effect, 10 is complete control
[10] = Rate 500 g/ha, Postemergence, scale 0 to 10, 0 no effect, 10 complete control
[11] = Rate 62 g/ha, 0 to 100 scale, 0 no effect, 100 complete control
[12] = Rate 125 g/ha, 0 to 100 scale (0 no effect, 100 complete control)
[13] = Rate 500 g/ha, 0 to 100 scale where 0 is no effect and 100 is complete control
[14] = Postemergence (flood test species), Rate 125 g/ha, scale of 0 to 10 where 0 is no effect and 10 is complete control
[15] = Rate 62 g/ha, Postemergence section, flood test species, scale of 0 to 10 where 0 is no effect and 10 is complete control
[16] = Postemergence, Rate 250 g/ha, scale 0 to 10, 0 no effect, 10 complete control
[17] = Preemergence, Rate 125 g/ha, scale 0 to 10 (0 no effect, 10 complete control)
[18] = Preemergence, Rate 250 g/ha, scale 0 to 10, 0 is no effect, 10 is complete control
[19] = Rate 500 g/ha, Postemergence, scale 0 to 10
[20] = Preemergence, Rate 125 g/ha, 0 is no effect, 10 is complete control

Compound: CCn1c(=O)on(C(=O)N(c2ccc(F)cc2F)C(C)C)c1=O [Compound 116]
- Wheat plant response rating (wheat; [3]): 6
- Wheat plant response rating (wheat; [4]): 3
- Wheat plant response rating (0 to 10 scale) (wheat; [5]): 5
- Plant response rating, Wheat (wheat; [6]): 8
- Wheat plant response rating (wheat; [7]): 8
- Wheat plant response rating (wheat; [8]): 0
- Plant response rating, Wheat (wheat; [9]): 7
- Wheat plant response rating (wheat; [10]): 8
- Plant response rating, Green foxtail (green foxtail; [11]): 65
- Plant response rating, Green foxtail (green foxtail; [12]): 50
- Plant response rating, Green foxtail (green foxtail; Rate 250 g/ha, 0 to 100 scale): 100
- Plant response rating, I. Ryegrass (Italian ryegrass; [11]): 50
- Plant response rating, I. Ryegrass (Italian ryegrass; [12]): 30
- Plant response rating, I. Ryegrass (Italian ryegrass; Rate 250 g/ha, 0 to 100 scale): 60
- Plant response rating, I. Ryegrass (Italian ryegrass; [13]): 100
- Ducksalad plant response rating (duck salad; [14]): 0
- Ducksalad plant response rating (duck salad; [15]): 0
- Ducksalad plant response rating (duck salad; Rate 250 g/ha, headed Pre-emergence (flood test species), scale 0 to 10 (0 no effect, 10 complete control)): 0
- Plant response rating, Ducksalad (duck salad; Rate 500 g/ha, headed Pre-emergence (flood test species), scale 0 to 10 (0 no effect, 10 complete control)): 0
- Ducksalad plant response rating (duck salad; Rate 500 g/ha, listed under Postemergence (flood test species), scale 0 to 10, 0 no effect, 10 complete control): 0
- Ducksalad plant response rating (duck salad; Rate 1000 g/ha, Pre-emergence (as headed), scale 0 to 10): 1
- Ducksalad plant response rating (duck salad; Rate 2000 g/ha, Pre-emergence (as headed), scale 0 to 10): 8
- Ducksalad plant response rating (duck salad; flood test, listed under Postemergence, Rate 250 g/ha, scale 0 to 10, 0 no effect, 10 complete control): 0
- Plant response rating, Barley (winter) (winter barley; [11]): 10
- Plant response rating, Barley (winter) (winter barley; [12]): 30
- Plant response rating, Barley (winter) (winter barley; Rate 250 g/ha, 0 to 100 scale): 70
- Plant response rating, Barley (winter) (winter barley; [13]): 80
- Plant response rating, Wheat (winter) (winter wheat [1]; [11]): 30
- Plant response rating, Wheat (winter) (winter wheat [1]; [12]): 55
- Plant response rating, Wheat (winter) (winter wheat [1]; Rate 250 g/ha, 0 to 100 scale): 30
- Plant response rating, Wheat (winter) (winter wheat [1]; [13]): 100
- Plant response rating, Wild oat (wild oat; [11]): 20
- Plant response rating, Wild oat (wild oat; [12]): 30
- Plant response rating, Wild oat (wild oat; [13]): 80
- Plant response rating, Wheat (winter) (winter wheat [2]; Rate 62 g/ha, 0 to 100 scale): 20
- Plant response rating, Wheat (winter) (winter wheat [2]; Rate 125 g/ha, 0 to 100 scale): 10
- Plant response rating, Wheat (winter) (winter wheat [2]; Rate 250 g/ha, 0 to 100 scale (0 no effect, 100 complete control)): 45
- Plant response rating, Wheat (winter) (winter wheat [2]; Rate 500 g/ha, 0 to 100 scale, 0 no effect, 100 complete control): 10
- Plant response rating, Blackgrass (blackgrass; [11]): 40
- Plant response rating, Blackgrass (blackgrass; [12]): 50
- Plant response rating, Blackgrass (blackgrass; Rate 250 g/ha, 0 to 100 scale): 45
- Plant response rating, Blackgrass (blackgrass; [13]): 100
- Giant foxtail plant response rating (giant foxtail; [3]): 9
- Giant foxtail plant response rating (giant foxtail; [16]): 9
- Giant foxtail plant response rating (giant foxtail; [4]): 10
- Plant response rating, Giant foxtail (giant foxtail; [17]): 10
- Plant response rating, Giant foxtail (giant foxtail; [6]): 10
- Giant foxtail plant response rating (giant foxtail; [7]): 10
- Giant foxtail plant response rating (giant foxtail; [8]): 9
- Giant foxtail plant response rating (giant foxtail; [10]): 9
- Crabgrass plant response rating (crabgrass; [3]): 9
- Crabgrass plant response rating (crabgrass; [16]): 9
- Crabgrass plant response rating (crabgrass; [4]): 8
- Plant response rating, Crabgrass (crabgrass; [17]): 10
- Plant response rating, Crabgrass (crabgrass; [6]): 10
- Crabgrass plant response rating (crabgrass; [7]): 10
- Crabgrass plant response rating (crabgrass; [8]): 9
- Crabgrass plant response rating (crabgrass; [10]): 9

Compound: CC(C)N(C(=O)n1oc(=O)n(CCCl)c1=O)c1ccc(F)cc1 [Compound 148]
- Wheat plant response rating (wheat; [3]): 1
- Wheat plant response rating (wheat; [4]): 0
- Wheat plant response rating (0 to 10 scale) (wheat; [5]): 3
- Wheat plant response rating (wheat; [18]): 3
- Wheat plant response rating (wheat; [7]): 6
- Wheat plant response rating (wheat; [8]): 0
- Plant response rating, Wheat (wheat; [9]): 3
- Wheat plant response rating (wheat; [19]): 5
- Plant response rating, Green foxtail (green foxtail; [11]): 20
- Plant response rating, Green foxtail (green foxtail; [12]): 30
- Green foxtail plant response rating (0 to 100 scale) (green foxtail; Rate 250 g/ha): 55
- Plant response rating, I. Ryegrass (Italian ryegrass; [11]): 20
- Plant response rating, I. Ryegrass (Italian ryegrass; [12]): 20
- I. Ryegrass plant response rating (0 to 100 scale) (Italian ryegrass; Rate 250 g/ha): 30
- Ducksalad plant response rating (duck salad; [14]): 0
- Ducksalad plant response rating (duck salad; [15]): 0
- Plant response rating, Ducksalad (duck salad; Rate 250 g/ha, Postemergence (flood test), scale 0 to 10, 0 is no effect, 10 is complete control): 0
- Ducksalad plant response rating (duck salad; Rate 500 g/ha, listed under Postemergence (flood test species), scale 0 to 10): 0
- Plant response rating, Barley (winter) (winter barley; [11]): 10
- Plant response rating, Barley (winter) (winter barley; [12]): 10
- Barley (winter) plant response rating (0 to 100 scale) (winter barley; Rate 250 g/ha): 10
- Plant response rating, Wheat (winter) (winter wheat [1]; [11]): 0
- Plant response rating, Wheat (winter) (winter wheat [1]; [12]): 0
- Wheat (winter) plant response rating (0 to 100 scale) (winter wheat [1]; Rate 250 g/ha): 0
- Plant response rating, Wild oat (wild oat; [11]): 10
- Plant response rating, Wild oat (wild oat; [12]): 15
- Wild oat plant response rating (0 to 100 scale) (wild oat; Rate 250 g/ha): 40
- Plant response rating, Wheat (winter) (winter wheat [2]; Rate 62 g/ha, 0 to 100 scale): 0
- Plant response rating, Wheat (winter) (winter wheat [2]; Rate 125 g/ha, 0 to 100 scale): 10
- Wheat (winter) plant response rating (winter wheat [2]; Rate 250 g/ha, 0 to 100 scale where 0 is no effect and 100 is complete control): 80
- Plant response rating, Blackgrass (blackgrass; [11]): 20
- Plant response rating, Blackgrass (blackgrass; [12]): 50
- Blackgrass plant response rating (0 to 100 scale) (blackgrass; Rate 250 g/ha): 50
- Giant foxtail plant response rating (giant foxtail; [3]): 8
- Giant foxtail plant response rating (giant foxtail; [4]): 7
- Giant foxtail plant response rating (0 to 10 scale) (giant foxtail; [20]): 9
- Giant foxtail plant response rating (giant foxtail; [18]): 9
- Giant foxtail plant response rating (giant foxtail; [7]): 10
- Giant foxtail plant response rating (giant foxtail; [8]): 5
- Plant response rating, Giant foxtail (giant foxtail; [9]): 8
- Giant foxtail plant response rating (giant foxtail; [19]): 9
- Crabgrass plant response rating (crabgrass; [3]): 8
- Crabgrass plant response rating (crabgrass; [4]): 5
- Crabgrass plant response rating (0 to 10 scale) (crabgrass; [20]): 8
- Crabgrass plant response rating (crabgrass; [18]): 9
- Crabgrass plant response rating (crabgrass; [7]): 9
- Crabgrass plant response rating (crabgrass; [8]): 8
- Plant response rating, Crabgrass (crabgrass; [9]): 8
- Crabgrass plant response rating (crabgrass; [19]): 9
